Test results: patent US6800622B1, “Pyrene-linked pyrrolo[2,1-c][1,4]benzodiazepine hybrids useful as anti-cancer agents” (Council of Scientific and Industrial Research, priority 2003, dated 2004)

Key:
MCF7 (Breast) = test: In vitro one dose primary anticancer assay (NCI); format: cell-based, human; settings: one dose at 10^−4 molar concentration
Method: (§1) In vitro biological activity studies were carried out at National Cancer Institute (USA).
(§2) Compounds Ve and Vg were evaluated the primary anti-cancer activity (Table 1) and further Ve have been evaluated in vitro against sixty human tumour cells derived from nine cancer types (leukemia, non-small-cell lung, colon, CNS, melanoma, ovarian, prostate, and breast cancer). For each compound, dose response curves for each cell line were measured at a minimum of five concentrations at 10 fold dilutions. A protocol of 48 h continuous drug exposure was used and a sulforhodamine B (SRB) protein assay was used to estimate cell viability or growth. The concentration causing 50% cell growth inhibition (GI50), total cell growth inhibition (TGI 0% growth) and 50% cell death (LC50, −50% growth) compared with the control was calculated.

NCI-H460 (Lung) = test: In vitro one dose primary anticancer assay (NCI); format: cell-based, human; settings: one dose at 10^−4 molar concentration
Method: as §1, §2

SF-268 (CNS) = test: In vitro one dose primary anticancer assay (NCI); format: cell-based, human; settings: one dose at 10^−4 molar concentration
Method: as §1, §2

sixty human tumour cells = test: NCI in vitro cytotoxicity, SRB assay, mean graph midpoints; format: cell-based; settings: 48 h continuous drug exposure, human tumour cell lines
Method: as §1, §2

SMILES	Growth percentages (Breast) MCF7 (MCF7 (Breast)) [%]	Growth percentages (Lung) NCI-H460 (NCI-H460 (Lung)) [%]	Growth percentages (CNS) SF-268 (SF-268 (CNS)) [%]	Log10 TGI mean graph midpoint (MG_MID) (sixty human tumour cells)
COc1cc2c(cc1OCCCC(=O)Nc1ccc3ccc4cccc5ccc1c3c45)N=C[C@@H]1CCCN1C2=O [Ve, 7-Methoxy-8-[N-(1″-pyrenyl)-propane-3′-carboxamide]-oxy-(11aS)-1,2,3,11a tetra-hydro-5H-pyrrolo[2,1-c][1,4]benzodiazepin-5-one]	31	11	70	−6.89
COc1cc2c(cc1OCCCCC(=O)Nc1ccc3ccc4cccc5ccc1c3c45)N=C[C@@H]1CCCN1C2=O [Vg, 7-Methoxy-8-[N-(1″-pyrenyl)-butane-4′-carboxamide]-oxy-(11aS)-1,2,3,11a-tetra-hydro-5H-pyrrolo[2,1-c][1,4]benzodiazepin-5-one]	72	106	131	
